The target of assay [1] is T1, purified human Factor XIa (Homo sapiens, UniProt P03951).
T1 construct: purified human Factor XIa; purchased Sekisui Diagnostics
In words: Factor XIa Assay. The format is biochemical. The note with it: fluorogenic substrate Z-Gly-Pro-Arg-AFC 100 μM, 40 pM enzyme, pH 7.4, read-out: F11a IC50. How it is done:
The effectiveness of a compound of the present invention as an inhibitor of Coagulation Factor XIa can be determined using a relevant purified serine protease, and an appropriate synthetic substrate. The rate of hydrolysis of the chromogenic or fluorogenic substrate by the relevant serine protease was measured both in the absence and presence of compounds of the present invention. Assays were conducted at room temperature or at 37° C. […] A decrease in the rate of fluorescence change in the presence of inhibitor is indicative of enzyme inhibition. Such methods are known to one skilled in the art. […]
Factor XIa determinations were made in 50 mM HEPES buffer at pH 7.4 containing 150 mM NaCl, 5 mM CaCl2, and 0.1% PEG 8000 (polyethylene glycol; JT Baker or Fisher Scientific). Determinations were made using purified human Factor XIa at a final concentration of 40 pM (Sekisui Diagnostics) and he synthetic substrate, Z-Gly-Pro-Arg-AFC, TFA salt (Sigma #C0980) at a concentration of 100 μM.
Activity assays were performed by diluting a stock solution of substrate at least tenfold to a final concentration ≦0.1 Km into a solution containing enzyme or enzyme equilibrated with inhibitor. Times required to achieve equilibration between enzyme and inhibitor were determined in control experiments. Initial velocities of product formation in the absence (VO) or presence of inhibitor (Vi) were measured. Assuming competitive inhibition, and that unity is negligible compared Km/[S], [I]/e, and [I]/e (where [S], [I], and e respectively represent the total concentrations, of substrate, inhibitor and enzyme), the equilibrium constant (Ki) for dissociation of the inhibitor from the enzyme can be obtained from the dependence of VO/Vi on [I] shown in the following equation.

Assay [2] has as its target T2, purified Human plasma kallikrein (Homo sapiens, UniProt P03952).
T2 construct: yields a heavy chain (371 amino acids) and a light chain (248 amino acids); purchased Enzyme Research Laboratories
In words: Kallikrein Assay. The format is biochemical. The following applies: Plasma Kallekrein IC50; fluorogenic substrate Acetyl-K-P-R-AFC, 0.5 nM enzyme, pH 7.4; read-out: PK IC50. How it is done:
The effectiveness of a compound of the present invention as an inhibitor of Kallikrein can be determined using a relevant purified serine protease, and an appropriate synthetic substrate. The rate of hydrolysis of the chromogenic or fluorogenic substrate by the relevant serine protease was measured both in the absence and presence of compounds of the present invention. Assays were conducted at room temperature or at 37° C. […] A decrease in the rate of fluorescence change in the presence of inhibitor is indicative of enzyme inhibition. Such methods are known to one skilled in the art. The results of this assay are expressed as the inhibitory constant, K1.
Kallikrein determinations were made in 50 mM HEPES buffer at pH 7.4 containing 150 mM NaCl, 5 mM CaCl2, and 0.1% PEG 8000 (polyethylene glycol; Fisher Scientific). Determinations were made using purified Human plasma kallikrein at a final concentration of 0.5 nM (Enzyme Research Laboratories) and the synthetic substrate, Acetyl-K—P—R-AFC (Sigma # C6608) at a concentration of […].
Times required to achieve equilibration between enzyme and inhibitor were determined in control experiments. The reactions were performed under linear progress curve conditions and fluorescence increase measured at 405 Ex/510 Em nm. […] IC50 was determined by inflection point from a four parameter logistic curve fit. Ki was calculated using the Cheng Prusoff equation, Ki=IC50/(1+([S]/Km)).

T1 sequence (P03951 388-625 limits assumed): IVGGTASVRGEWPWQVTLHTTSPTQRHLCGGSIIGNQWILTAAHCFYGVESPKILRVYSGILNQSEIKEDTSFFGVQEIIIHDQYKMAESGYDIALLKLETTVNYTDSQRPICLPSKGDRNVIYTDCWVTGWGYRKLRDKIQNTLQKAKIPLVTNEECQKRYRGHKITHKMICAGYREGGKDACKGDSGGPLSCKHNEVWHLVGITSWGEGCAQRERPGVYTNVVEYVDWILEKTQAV
T1 sequence (P03951 19-387 partner limits assumed): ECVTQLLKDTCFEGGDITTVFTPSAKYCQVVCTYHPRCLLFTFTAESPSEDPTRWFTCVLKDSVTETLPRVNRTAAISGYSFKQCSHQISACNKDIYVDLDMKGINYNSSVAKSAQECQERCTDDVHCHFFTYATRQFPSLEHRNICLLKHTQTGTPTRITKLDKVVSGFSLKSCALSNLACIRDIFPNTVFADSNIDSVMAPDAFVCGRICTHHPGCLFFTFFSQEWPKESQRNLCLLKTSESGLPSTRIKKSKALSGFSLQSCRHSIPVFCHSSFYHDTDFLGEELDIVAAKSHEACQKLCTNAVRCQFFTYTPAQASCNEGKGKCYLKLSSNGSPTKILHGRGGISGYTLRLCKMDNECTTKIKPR
T2 sequence (P03952 391-638 limits assumed): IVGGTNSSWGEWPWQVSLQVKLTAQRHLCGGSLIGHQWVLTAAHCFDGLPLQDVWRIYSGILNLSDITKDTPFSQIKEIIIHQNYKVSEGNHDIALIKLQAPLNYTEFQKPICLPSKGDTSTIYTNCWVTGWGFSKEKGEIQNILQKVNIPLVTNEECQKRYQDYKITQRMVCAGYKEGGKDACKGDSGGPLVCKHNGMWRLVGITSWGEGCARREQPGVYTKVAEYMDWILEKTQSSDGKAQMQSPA
T2 sequence (P03952 20-390 partner limits assumed): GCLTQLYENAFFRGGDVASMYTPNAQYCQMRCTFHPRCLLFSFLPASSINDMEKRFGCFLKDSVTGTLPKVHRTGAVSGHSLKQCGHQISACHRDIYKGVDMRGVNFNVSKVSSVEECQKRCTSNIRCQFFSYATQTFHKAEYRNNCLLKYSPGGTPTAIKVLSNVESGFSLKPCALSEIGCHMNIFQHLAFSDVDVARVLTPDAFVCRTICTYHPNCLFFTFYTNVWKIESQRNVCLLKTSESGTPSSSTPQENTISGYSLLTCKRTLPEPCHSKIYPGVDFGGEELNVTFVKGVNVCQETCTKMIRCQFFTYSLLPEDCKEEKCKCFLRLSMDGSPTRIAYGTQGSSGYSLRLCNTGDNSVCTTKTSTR

As to `NC(=O)c1scc(-c2cnc(C(CC3CC3)c3ccc(-c4cc(Cl)ccc4-n4cnnn4)c[n+]3[O-])[nH]2)c1F` (single isomer, unassigned) [Example 59, 2-(1-(5-(5-carbamoyl-4-fluorothiophen-3-yl)-1H-imidazol-2-yl)-2-cyclopropylethyl)-5-(5-chloro-2-(1H-tetrazol-1-yl)phenyl)pyridine 1-oxide], the IC50 in assay [1] was 110 nM.
Turning to `O=C(O)c1ccc(-c2cnc(C(CC3CC3)c3ccc(-c4cc(Cl)ccc4-n4cnnn4)c[n+]3[O-])[nH]2)cc1` (single isomer, unassigned) [Example 55], the half-inhibitory concentration (IC50) in assay [1] came to 593 nM.
On to `O=C(O)c1cccc(-c2cnc(C(CC3CC3)c3ccc(-c4cc(Cl)ccc4-n4cnnn4)c[n+]3[O-])[nH]2)c1F` (single isomer, unassigned) [Example 52, 3-[2-(1-{5-[5-chloro-2-(1H-tetrazol-1-yl)phenyl]-1-oxidopyridin-2-yl}-2-cyclopropylethyl)-1H-imidazol-5-yl]-2-fluorobenzoic acid], for which the IC50 in assay [1] came to 204 nM.
For `COC(=O)Nc1ccc(-c2[nH]c(C(CC3CC3)c3ccc(-c4cc(Cl)ccc4-n4cnnn4)c[n+]3[O-])nc2Cl)cc1` (single isomer, unassigned) [Example 78, 5-(5-chloro-2-(1H-tetrazol-1-yl)phenyl)-2-(1-(4-chloro-5-(4-((methoxycarbonyl)amino)phenyl)-1H-imidazol-2-yl)-2-cyclopropylethyl)pyridine 1-oxide], in assay [1], the IC50 amounted to 54.4 nM.
On to `COC(=O)Nc1ccc(-c2c[nH]c(C(Cc3ccc(F)cc3)c3ccc(-c4cc(Cl)ccc4OC(F)F)c[n+]3[O-])n2)cc1` (racemic) [Example 15], for which, in assay [1], the IC50 amounted to 34.2 nM.
For the molecule `[O-][n+]1cc(-c2cc(Cl)ccc2-n2cnnn2)ccc1C(Cc1ccc(F)cc1)c1nc(-c2ccc(Cl)cc2)c[nH]1` (single isomer, unassigned) [Example 21], the IC50 in assay [1] was 128 nM.
In the case of `N#Cc1ccc(-c2cnc(C(CC3CC3)c3ccc(-c4cc(Cl)ccc4-n4cnnn4)c[n+]3[O-])[nH]2)cc1` (single isomer, unassigned) [Example 30, 4-[2-(1-{5-[5-chloro-2-(1H-tetrazol-1-yl)phenyl]-1-oxidopyridin-2-yl}-2-cyclopropylethyl)-1H-imidazol-5-yl]benzonitrile], the IC50 in assay [1] amounted to 266 nM.
As for `COC(=O)Nc1ccc(-c2c[nH]c(C(Cc3ccc(F)cc3)c3ccc(-c4cc(Cl)ccc4C(F)F)c[n+]3[O-])n2)cc1` (single isomer, unassigned) [Example 12, 5-(5-chloro-2-(difluoromethyl)phenyl)-2-(2-(4-fluorophenyl)-1-(4-(4-((methoxycarbonyl)amino)phenyl)-1H-imidazol-2-yl)ethyl)pyridine 1-oxide], in assay [1], the IC50 worked out at 341 nM.
On to `COC(=O)Nc1ccc(-c2cnc(C(CC3CC3)c3ccc(-c4cc(Cl)ccc4-n4cc(C(F)F)cn4)c[n+]3[O-])[nH]2)cc1` (racemic) [Example 75], for which, in assay [1], the IC50 amounted to 931 nM.
Take `COC(=O)Nc1ccc(-c2cnc([C@@H](Cc3ccccc3)c3ccc(-c4cc(Cl)ccc4-c4cnco4)c[n+]3[O-])[nH]2)cc1` [Example 26]: the IC50 in assay [1] was 271 nM.
Consider `N#Cc1ccc(-c2c[nH]c(C(Cc3ccc(F)cc3)c3ccc(-c4cc(Cl)ccc4-n4cnnn4)c[n+]3[O-])n2)cc1` (single isomer, unassigned) [Example 19], for which the IC50 in assay [1] came out at 311 nM.
Same read-out and setting: under `COC(=O)Nc1ccc(-c2cnc(C(CC3CC3)c3ccc(-c4cc(Cl)ccc4-n4cnnn4)c[n+]3[O-])[nH]2)c(F)c1` (single isomer, unassigned) [Example 37] stands 74.8 nM.
For `COC(=O)Nc1ccc(-c2cnc(C(CC3CC3)c3ccc(-c4cc(Cl)ccc4-n4cnnn4)c[n+]3[O-])[nH]2)cc1` (single isomer, unassigned) [Example 27, 5-(5-chloro-2-(1H-tetrazol-1-yl)phenyl)-2-(2-cyclopropyl-1-(5-(4-((methoxycarbonyl)amino)phenyl)-1H-imidazol-2-yl)ethyl)pyridine 1-oxide], the IC50 in assay [2] is 207 nM.
Regarding `COC(=O)c1scc(-c2cnc(C(CC3CC3)c3ccc(-c4cc(Cl)ccc4-n4cnnn4)c[n+]3[O-])[nH]2)c1F` (single isomer, unassigned) [Example 62, Methyl 4-[2-(1-{5-[5-chloro-2-(1H-tetrazol-1-yl)phenyl]-1-oxidopyridin-2-yl}-2-cyclopropylethyl)-1H-imidazol-5-yl]-3-fluorothiophene-2-carboxylate], the IC50 in assay [1] turned out to be 1000 nM.
On to `COC(=O)Nc1ccc(-c2cnc(C(CC3CC3)c3ccc(-c4cc(Cl)ccc4-n4ccnn4)c[n+]3[O-])[nH]2)cc1` (racemic) [Example 65, 5-(5-Chloro-2-(1H-1,2,3-triazol-1-yl)phenyl)-2-(2-cyclopropyl-1-(5-(4-((methoxycarbonyl)amino)phenyl)-1H-imidazol-2-yl)ethyl)pyridine 1-oxide], for which the IC50 in assay [1] stood at 11.9 nM.
On to `COC(=O)Nc1ccc(-c2c[nH]c(C(Cc3ccc(F)cc3)c3ccc(-c4c(C#N)ccc(Cl)c4F)c[n+]3[O-])n2)cc1` (racemic) [Example 14], for which the IC50 in assay [1] is 59.9 nM.
As to `N#Cc1cccc(-c2cnc(C(CC3CC3)c3ccc(-c4cc(Cl)ccc4-n4cnnn4)c[n+]3[O-])[nH]2)c1` (single isomer, unassigned) [Example 35], in assay [1], the IC50 came to 1000 nM.
On to `Nc1ccc(-c2cnc(C(CC3CC3)c3ccc(-c4cc(Cl)ccc4-n4cnnn4)c[n+]3[O-])[nH]2)c(Cl)n1` (single isomer, unassigned) [Example 48, 6-chloro-5-[2-(1-{5-[5-chloro-2-(1H-tetrazol-1-yl)phenyl]-1-oxidopyridin-2-yl}-2-cyclopropylethyl)-1H-imidazol-5-yl]pyridin-2-amine], for which, in assay [1], the IC50 amounted to 72 nM.
On to `[O-][n+]1cc(-c2cc(Cl)ccc2-n2cnnn2)ccc1C(CC1CC1)c1ncc(-c2cccc(F)c2)[nH]1` (single isomer, unassigned) [Example 31], for which the IC50 in assay [1] came out at 1000 nM.
With `COC(=O)Nc1ccc(-c2cnc(C(CC3CC3)c3ccc(-c4cc(Cl)ccc4-n4cccn4)c[n+]3[O-])[nH]2)cc1` (racemic) [Example 73], the IC50 in assay [1] was found to be 1000 nM.
On to `COC(=O)Nc1ccc(-c2cnc(C(CC3CC3)c3ccc(-c4cc(Cl)ccc4-n4cc(C(F)F)nn4)c[n+]3[O-])[nH]2)cc1` (racemic) [Example 74], for which the IC50 in assay [1] came to 11 nM.
On to `COC(=O)Nc1ccc(-c2cnc(C(CC3CC3)c3ccc(-c4cc(Cl)ccc4-n4cnnc4)c[n+]3[O-])[nH]2)cc1` (racemic) [Example 66, 5-(5-chloro-2-(4H-1,2,4-triazol-4-yl)phenyl)-2-(2-cyclopropyl-1-(5-(4-((methoxycarbonyl)amino)phenyl)-1H-imidazol-2-yl)ethyl)pyridine 1-oxide], for which the concentration for half-maximal inhibition (IC50) in assay [1] came to 12.9 nM.
For `COC(=O)Nc1ccc(-c2cnc(C(CC3CC3)c3ccc(-c4cc(Cl)ccc4-c4cocn4)c[n+]3[O-])[nH]2)cc1` (racemic) [Example 71], in assay [1], the IC50 is 834 nM.
With `CC(C)OC(=O)Nc1ccc(-c2cnc(C(CC3CC3)c3ccc(-c4cc(Cl)ccc4-n4cnnn4)c[n+]3[O-])[nH]2)cc1` (racemic) [Example 46], in assay [1], the IC50 came out at 2.91 nM.
For `COC(=O)Nc1ccc(-c2cnc(C(CC3CC3)c3ccc(-c4cc(Cl)ccc4-n4cncn4)c[n+]3[O-])[nH]2)cc1` (racemic) [Example 68], the IC50 in assay [1] was 631 nM.
With `COC(=O)Nc1ccc(-c2cnc(C(CC3CC3)c3ccc(-c4cc(Cl)ccc4-c4cnco4)c[n+]3[O-])[nH]2)cc1` (single isomer, unassigned) [Example 70], the 50% inhibitory concentration (IC50) in assay [1] was found to be 1000 nM.
As to `COC(=O)Nc1ccc(-c2c[nH]c(C(Cc3ccccc3)c3ccc(-c4c(F)ccc(Cl)c4F)c[n+]3[O-])n2)cc1` (single isomer, unassigned) [Example 6], the IC50 in assay [1] was 289 nM.
Regarding `O=C(O)c1cccc(-c2c[nH]c(C(CC3CC3)c3ccc(-c4cc(Cl)ccc4-n4cnnn4)c[n+]3[O-])n2)c1` (single isomer, unassigned) [Example 54], the IC50 in assay [1] is 71 nM.

Source of the values: patent US9868727B2, “Factor XIa inhibitors” (Merck Sharp & Dohme Corp., priority 2014, dated 2018).
